Bridges are numbered along the chain shown (N, C = ends). Where no end group is shown, it is not given here. [ ]: non-standard residue; d: D form. The star is where a group is joined. Biotin = O=C1N[C@H]2[C@H](CS[C@H]2CCCCC(=O)*)N1; S5 = C=CCCC[C@](C)(N)C(=O)O; Nle = CCCC[C@H](N)C(=O)O
Key:
actin [1] = test: Visualization of actin in U2OS cells with TAMRA- and biotin-labeled stapled peptides; assay type: cell-based
actin filaments [2] = test: Staple scan of TAMRA-tagged stapled Abp140 peptides: actin binding over time by fluorescence microscopy in C2C12 cells; assay type: cell-based; conditions: C2C12 mouse myoblast cells, TAMRA-tagged peptides (b)-(g) compared
Source text: As a proof of concept, hydrocarbon staples were introduced at different locations in a peptide with known binding attributes for a target protein in order to identify stapled peptides with enhanced stability, cell penetrance, and that retain or enhance target binding. As shown in FIG. 1 (row (a)), a peptide composed of 17 amino acids from the N-terminus of the S. cerevisiae Abp 140 protein that binds to actin filaments was chosen for modification. In the native protein, this peptide has an alpha-helical structure that is a recognition motif for actin. At least one all-hydrocarbon staple was introduced at various locations of the peptide to stabilize the alpha-helical recognition motif to produce stapled peptides markers for actin (see rows (b)-(g) in FIG. 1; the location of hydrocarbon staples in the peptide sequence is demarcated by an X, wherein X is(S)-2-(4′-pentenyl)alanine). […] After 3 hours of incubation, cells were washed with PBS to remove extra peptide reagent and fluorescence microscopy was then used to assess actin binding by the peptides, and to determine overall peptide stability. […] The stapled peptide that retained actin binding over the longest period of time, as determined by fluorescence in cells, was selected as having hydrocarbon staple(s) at the optimal sequence locations for improving peptide stability for biomarker detection.

actin filaments [3] = test: Labeling of actin filaments in live C2C12 cells, confocal microscopy; assay type: cell-based, mouse; conditions: 10 μM, room temperature, 2 hours, then 50 μM chloroquine for 30 minutes
Experimental: To determine if stabilized peptides can be used to detect biomarkers in live cells, stapled peptide (g) (see FIG. 1, row (g)) was used to label actin filaments in mouse myoblast cells (C2C12 cell line, ATCC® CRL-1772™). Initially, cells were seeded at a density of 10,000 cells/well in 96 well plates in DMEM media and incubated overnight at 37° C. […] After washing the cells with phosphate-buffered saline (PBS), Hoechst DNA dye was then added to the cells, which were further incubated at room temperature for 30 minutes before being washed again to remove extra dye. Afterwards, confocal microscopy was used to determine the intracellular localization of the fluorescent-tagged stapled peptide.
This technology can be applied for, e.g., to FACS and other fluorescent high-throughput screening methods to for example detect overexpression of biomarkers in fixed and living cells.

actin filaments [4] = test: Labeling of actin filaments in fixed C2C12 cells, confocal microscopy; assay type: cell-based, mouse
Experimental: Stapled peptide (g) was also used to detect actin filaments in fixed C2C12 cells. Cells were seeded in 96 well plates at a density of 10,000 cells/well in DMEM media and incubated overnight at 37° C. The cells were fixed using 4% paraformaldehyde in PBS for 20 minutes and then permeabilized using 0.3% Triton-X100 in PBS for 10 minutes. This was followed by the addition of Hoechst DNA dye to the cells to stain nuclei, and FITC-phalloidin (Acti-stain™ 488 phalloidin, Cat. #PHDG1-A, Cytoskeleton, Inc.) to label F actin. After rinsing the cells with PBS, serial dilutions of each peptide were transferred to the cells, and the cells were incubated at 37° C. for 30 minutes. Confocal microscopy was then used to detect the cellular localization of the stapled peptide (g) fused to a fluorescent tag.

actin [5] = test: Actin visualization in fixed murine tissues; assay type: cell-based, mouse; conditions: fixed murine heart, lower extremity and tongue, FIG. 5
actin [6] = test: Labeling of actin in live zebrafish, confocal microscopy; assay type: in vivo; conditions: 10 μM, room temperature, 2 hours, then 50 μM chloroquine for 30 minutes; skin; FIG. 9
Experimental: In a further application, a lead TAMRA-labeled stapled actin-binding peptide was incubated with live zebrafish (10 μM, room temperature, 2 hours), followed by treatment with 50 μM chloroquine for 30 minutes to achieve complete endosomal release and was immediately imaged by confocal microscopy (FIG. 9).

For “(h): stapled actin-binding peptide with alanine substitution and Lysine(Biotin) ([Nle]GVADLIKKFE[S5]IAK[S5]EK(Biotin); staple 12-16; not fully specified)”, the “actin detection in U2OS cells, indirect detection with fluorescently-labeled streptavidin” value (actin [1]; biotin label, fixed cells, FIG. 4B) was “robust actin detection was observed”.
“peptide (f): hydrocarbon-stapled Abp140 N-terminal 17-mer, TAMRA-tagged; selected as most stable stapled peptide marker for actin ([Nle]GVADLIKKFE[S5]ISK[S5]EK(TAMRA); staple 12-16)” was tested, and the “period of time over which actin binding is retained, as determined by fluorescence in cells” value (actin filaments [2]) was “exhibited actin binding for the longest period of time”.
With “peptide (g): peptide (f) with a serine to alanine substitution (S14A); Lysine(TAMRA)-tagged stapled actin-binding peptide ([Nle]GVADLIKKFE[S5]IAK[S5]EK(TAMRA); staple 12-16)” the “cell entry and labeling of actin filaments in live cells” value (actin filaments [3]) was “entered live cells and selectively bound to and labeled actin filaments”, the “labeling of actin filaments in fixed cells” value (actin filaments [4]; C2C12 cells fixed with 4% paraformaldehyde, permeabilized with 0.3% Triton-X100, confocal microscopy) was “selectively bound to and labeled actin filaments” and the “co-localization with the FITC-phalloidin-labeled actin filament network” value (actin filaments [4]; fixed C2C12 cells) was “co-localized with the actin filament network”. The “actin detection in U2OS cells, direct fluorescence detection” value (actin [1]; TAMRA label, FIG. 4A) was “robust actin detection was observed”, the “actin visualization in mouse tissues” value (actin [5]) was “robust actin visualization in heart, lower extremity, and tongue specimens” and the “labeling of actin in live zebrafish” value (actin [6]) was “can label actin in the skin of live zebrafish”.

Reference: US20250076288A1, “STABILIZED PEPTIDES FOR BIOMARKER DETECTION” (Dana-Farber Cancer Institute, Inc., priority 2018, published 2025)
